Measured values published in patent publication US20150157648A1, “NUTRITIONAL APPROACH TO IMPROVING ATHLETIC PERFORMANCE AND REDUCING INJURY WITH L-ERGOTHIONEINE AND/OR VITAMIN D2” (priority 2012, published 2015).

Assays:
[1] = after mushroom consumption, healthy men; cited from earlier work
[2] = test system: IL-6; assay: IL-6 ELISA of whole blood cell lysate from alpha synuclein transgenic mice; assay type: in vivo; conditions: one remaining sample per treatment group
Experimental: We pursued this effect in our mice since the role of IL-6 and other neuroimmune factors need to be elucidated on PD. Alpha synuclein transgenic mice expressing the human gene for alpha-synuclein were treated with the medical food ErgoD2™ (Pleurotus; Table 3) or N-Acetylcysteine (NAC), and whole blood cell lysate samples from these mice were evaluated in triplicate using an ELISA for the presence of IL-6. The results were compared to those from untreated and wild-type controls.
A serial dilution of provided standard solution allowed for the creation of a standard curve following absorbency reading. An exponential regression of this curve was used to extrapolate the concentration of IL-6 in the lysate samples based on their final absorbency values and accounting for dilution factors of the samples.
Lysate samples taken from subjects #222 and #321 were clotted. A small amount of each was used during assay, but their relatively high corresponding dilution factors call into question the findings based on these samples.

[3] = test system: SNCA transgenic mouse model of PD; assay: grip strength task in SNCA transgenic mouse model of PD; assay type: in vivo; conditions: PD model mice, three months of treatment
From the text: Matched cohorts of an SNCA transgenic mouse model of PD were used to measure the therapeutic efficacy of the medical food formulation ErgoD2TM, created from a single mushroom species, Pleurotus […]. The outcomes measurements assessed improvement in grip strength and alpha-synuclein levels in the cortex and/or midbrain of the PD animals. […] No detectable motor behavior impairments, autonomic abnormalities, olfactory dysfunction, dopaminergic deficits, Lewy body inclusions or neurodegeneration are associated with α-synuclein expression in these mice (Kuo et al., 2010). As outlined in the results section, the mice were grouped at ten (10) mice/cohort and were fed a purina diet for three months with and without addition of the medical food ErgoD2TM, provided by Entia Biosciences, Inc. Three (3) test diets were created with the assistance of Carrie Schultz, Ph.D., Land O'Lakes Purina Feed, and each diet was color-coded. The control/placebo mouse diet consisted of Purina Modified LabDiet® (RMH 3000). The two treatment diets were RMH 3000 supplemented with (i) synthetic N-Acetyl Cysteine (NAC) @ 0.015% of total weight and (ii) the medical food ErgoD2TM @ 0.5% of total weight. […] The mouse is then pulled back gently until the grip is released and peak force at the point of release is recorded in Kg. […]

[4] = test system: alpha-synuclein; assay: alpha-synuclein ELISA of plasma, cortex and midbrain of SNCA transgenic mice; assay type: in vivo, mouse; conditions: three months of diet; untreated controls 2.52±0.28
From the text: Matched cohorts of an SNCA transgenic mouse model of PD were used to measure the therapeutic efficacy of the medical food formulation ErgoD2TM, created from a single mushroom species, Pleurotus […]. The outcomes measurements assessed improvement in grip strength and alpha-synuclein levels in the cortex and/or midbrain of the PD animals. […] No detectable motor behavior impairments, autonomic abnormalities, olfactory dysfunction, dopaminergic deficits, Lewy body inclusions or neurodegeneration are associated with α-synuclein expression in these mice (Kuo et al., 2010). As outlined in the results section, the mice were grouped at ten (10) mice/cohort and were fed a purina diet for three months with and without addition of the medical food ErgoD2TM, provided by Entia Biosciences, Inc. Three (3) test diets were created with the assistance of Carrie Schultz, Ph.D., Land O'Lakes Purina Feed, and each diet was color-coded. […] Alpha-synuclein was measured using an ELISA kit (Invitrogen, Hu α-Synuclein ELISA Kit) according to the manufacturer's protocol. The α-synuclein concentration of each 1 mL homogenized midbrain lysate was calculated by interpolating absorbance readings to a standard curve and adjusting for necessary dilution factors and protein equivalencies. The mean α-synuclein concentration of the samples in each treatment group was then calculated. […]

[5] = test system: glutathione (GSH); assay: kinetic assay of plasma glutathione (GSH) in Pac-Tg (SNCA) transgenic mice; assay type: in vivo; conditions: trend only: p=0.10 (Pleurotus), p=0.09 (NAC)
Experimental: Our Pac-Tg (SNCA) mice transgenic mice express the human gene for human alpha-synuclein and these were assigned one of four treatment paradigms (including no treatment). Plasma samples taken from these mice were evaluated in duplicate using a kinetic assay protocol for the presence of glutathione (GSH), a measure of resilience to oxidative stress. The tested subject groups were treated with one of the following: Blazei Mushroom, Pleurotus mushroom, or n-acetyl cysteine (NAC). The results for these groups were compared to those for both untreated and wild-type controls.
Data. A serial dilution of provided standard solution allowed for the creation of a standard curve following kinetic absorbance readings (FIGS. 6A and B). The change in absorbance (Vmax) over five minutes (six absorbance readings) was calculated for each standard and plotted against each standard's known GSH concentration. […] The change in absorbance for the second standard was calculated using only the first two kinetic readings (t=0, t=1) for the same reason. […] A linear regression of the resulting standard curve allowed for extrapolation of GSH levels in the assayed plasma samples based on their changes in absorbance (Vmax) over six minute-reads.
Following tabulation of the data, results were omitted if they were not reproducible in duplicate using all six kinetic readings and within 30% precision. […]

[6] = test system: Drosophila melanogaster; assay: survival of Drosophila under Paraquat-induced oxidative stress; assay type: in vivo; conditions: for effect on Paraquat-induced oxidative stress (in words): single nutrient, pure form
Experimental: The effect of Agaricus Blazei without enrichment, with Vitamin D2 enrichment, pure Vitamin D2 and control (vehicle for the delivery) on the survival rate of Drosophila melanogaster under Paraquat-induced oxidative stress condition was tested. The study focused on the control of Paraquat induced oxidative stress/biologic death. Paraquat is a very potent oxidative stress inducing chemical and causes death in animals and plants by the toxicity of released free radicals. Paraquat (10 mM concentration) (Sigma Aldrich) was used to chemically induce oxidative stress. Paraquat is the trade name for N,N′-dimethyl-4,4′-bipyridinium dichloride, a widely used herbicide. Paraquat, a viologen, is quick-acting and non-selective, killing green plant tissue on contact. It is also toxic to humans when swallowed. This is the most standard chemical used in experimental induction of oxidative stress using the Drosophila model system. It catalyzes the formation of reactive oxygen species (ROS). Paraquat will undergo redox cycling in vivo, gets reduced by an electron donor such NADPH, before being oxidized by an electron receptor such as dioxygen to produce superoxide, a major ROS.
The following materials and methods were utilized. Vials containing 10 mM Paraquat (from Sigma Aldrich) in 5 ml of 1.2% Low melting point Agarose medium were prepared. A strip of half moist filter paper was inserted in the medium (with the wet end in). Yeast paste containing 1% concentration (w/w) of the various test materials (see above) mixed to homogeneity was prepared. Yeast paste without drug was used as control. Uniform aliquot (˜300 mg) of yeast paste with or without the test material) was applied to vials in such a way that yeast paste was on the glass surface and covered the dry end (top) of the filter paper strip. Freshly enclosed wild type isogenized Canton-S males and females were collected and starved on 1% agar medium for 5-6 hours. […] Flies were transferred once in 2 days and the number of flies surviving at each transfer was recorded.

[7] = test system: Alzheimer's disease mutant fruit fly; assay: survival and life span of Alzheimer's disease (APP over-expression) Drosophila model; assay type: in vivo; conditions: APP induced in central brain by GAL4 driver
From the text: Type of Model (with specific Drosophila model of neurodegeneration, with references). The targeted over/ectopic expression of APP in the brain using a UAS promoter driven APP transgene, induced by a specific GAL4 trans-driver in the brain of a Drosophila model system, was used for this Example. Below is a reference for such over-expression of APP in the Drosophila model system and the combination gives a fully penetrant AD with limited life-span.
β-Amyloid peptides and amyloid precursor protein (APP) play a deterministic role in Alzheimer's disease (AD). In Drosophila, the targeted expression of the key genes of AD, APP, causes generation of β-amyloid plaques and age-dependent neurodegeneration as well as progression to semi lethality, a shortened life span; genetic manipulations or pharmacological treatments with secretase inhibitors influenced the activity of the APP-processing proteases and modulated the severity of the phenotypes (Greeve I., et al., J. Neuroscience 24, 3899-3906 (2004)). The AD strain lives only for a few days after their eclosion (birth) as opposed to 65 days or more for wild type normal strains.
We determined the extension of life span in the mutant strain for each test compound. We used a specific GAL4 driver that induces the APP gene in the central brain area at high levels (see above) and results in a fully penetrant lethality within a 2-3 weeks period.

C[N+](C)(C)[C@@H](Cc1c[nH]c(=S)[nH]1)C(=O)[O-] [ET, L-Ergothioneine]
time to peak of ET in red blood cells (RBC) [1]: 2 h

CC(=O)N[C@@H](CS)C(=O)O [NAC, N-Acetylcysteine]
IL-6 more than the untreated group [2]: 8.7 pg/mL
IL-6 more than the wild-type group [2]: 9.5 pg/mL
grip testing (in words) [3]: statistically significant improvement
mean midbrain α-synuclein concentration [4]: 2.17 ± 0.31 µg/mL
plasma glutathione concentration vs. untreated mice [5]: higher concentrations of glutathione

C=C1CC[C@H](O)C/C1=C/C=C1\CCC[C@]2(C)[C@@H]([C@H](C)CCCC(C)C)CC[C@@H]12 [Vitamin D3, cholecalciferol]
effect on Paraquat-induced oxidative stress (in words) [6]: no beneficial effect
survival rate of AD flies versus control [7]: no such effect

C=C1CC[C@H](O)C/C1=C/C=C1\CCC[C@]2(C)[C@@H]([C@H](C)/C=C/[C@H](C)C(C)C)CC[C@@H]12 [pure Vitamin D2, Ergocalciferol]
survivability under Paraquat-induced oxidative stress ([6]; 10 mM Paraquat, 1% (w/w) test material in yeast paste, 10 days, 25 degrees C): 13%+/−3%
effect on Paraquat-induced oxidative stress (in words) [6]: no beneficial effect
survival rate of AD flies versus control [7]: no such effect
